Legend:
[1] = In vitro drug release studies of ISFIs; format: physicochemical; conditions: ISFI suspension 1:4 PLGA/(NMP:DMSO), 290 mg/g
Method: Sample aliquots (1 mL) were collected at various time points and replaced with fresh release medium. The release medium was completely removed and replaced with fresh medium every week to maintain sink conditions. Drug concentration in the release samples was quantified by HPLC using the method described above. Cumulative drug release was calculated from the HPLC analysis and normalized to the total mass of drug in the implant. All experiments were performed in quadruplicate. ISFIs were prepared with 1:2 w/w PLGA:(NMP/DMPS 1:1) (PLGA MW 27 kDa, 50:50 LA/GA). […] To investigate the effect of polymer MW on CAB release kinetics, two CAB suspension ISFIs were prepared using PLGA (50:50 LA/GA) with MW of 10 kDa and 27 kDa. CAB was loaded at a constant concentration of 250 mg/g as a stable suspension formulation in a 1:2 PLGA/solvent (solvent=NMP/DMSO 1:1 w/w). […] 55 μg/d compared to 13.53 μg/d for PLGA MW 27 kDa. […] The effect of formulation composition and addition of rate controlling polymers like star-PLGA (5-arm 50:50 LA/GA PLGA MW 54 kDa) on drug release kinetics were also investigated. Three formulations were prepared using NMP/DMSO (1:1) as a co-solvent system, PLGA (50:50 LA/GA MW 27 kDa) and PLGA/star-PLGA (9:1 w/w) polymer combination. CAB was loaded at a constant concentration of 300 mg/g in all three formulations. […]

[2] = Preparation and optimization of drug suspension formulations; format: physicochemical
Method: The polymer based drug suspensions were prepared by: (1) Placebo formulation: 50:50 Poly(DL-lactide-co-glycolide) (PLGA), MW 10 or 27 kDa, or Poly(lactic acid) (PLA) MW 10 kDa, was mixed with N-methyl-2-pyrrolidone (NMP) or a combination of NMP and DMSO (e.g. 1:1 v/v) at various weight ratios of PLGA/solvent (w/w) and allowed to dissolve by continuous mixing at room temperature (Placebo). […] (2) Drug loading: […] (3) Depot formation: A sample from the resulting drug-loaded suspension formulation (30 μL, 30±3 mg) was injected into 200 mL of 0.01 M PBS pH 7.4 using a pipette and incubated at 37° C. for 24 h to produce a spherical implant, as an example. […] Of importance, but without being limited to any particular theory or mechanism of action, is the ratio of the polymer:solvent:drug that achieves high drug loading in a stable polymeric suspension formulation and which is correlated to the drug's saturation solubility in the solvent system.

## Cn1c(Cn2ccc(C(F)(F)F)c(Oc3cc(Cl)cc(C#N)c3)c2=O)n[nH]c1=O [DOR, Doravirine]
[1]; PBS 37° C.
  burst release in 24 h: < 2%
[1]; last timepoint analyzed
  drug release at d3: 3%
[2]
  suspension formation when loaded above saturation concentration in PLGA/solvent placebo: formed stable syringeable formulations
[2]; PBS, pH 7.4, 37° C.
  depot formation when injected into aqueous release medium: formation of stable depots

— patent US20240285769A1, “INJECTABLE, BIODEGRADABLE AND REMOVABLE POLYMER BASED DRUG SUSPENSION FOR ULTRA-LONG-ACTING DRUG DELIVERY” (The University of North Carolina at Chapel Hill, priority 2021, published 2024)
